Measured values reported in patent publication US10500198B2, “Bis-benzylidine piperidone proteasome inhibitor with anticancer activity” (The Johns Hopkins University, priority 2013, dated 2019).
Counter-ions that a name gives are not always drawn. Each block holds one molecule with its values, some of them ahead of it.

Tests used:
[1] = test system: cancer cells; experiment: Antiproliferative activity against cancer cells (design rationale); type: cell-based
From the text: We used Chloro and Nitro functional groups as substituent's on the aromatic ring due to their greater electron withdrawing effect at ortho (or) para (or) meta (or) both positions along with different amino acid linkages on bis-benzylidine piperidone moiety. Amino acids were chosen based in their physical characteristics like very hydrophobic (phenylalanine), strongly basic and hydrophilic (lysine), basic and hydrophilic (histidine) and amphiphilic (glycine). Commercially available Fmoc and Boc protected amino acids were used in the synthesis, and they were evaluated for their antiproliferatory activity against cancer cells.
Next we synthesized another set of compounds by converting free amine functionality to its Acetate (Ac), Acrolyl (Acr) and Benzoyl […] analogs as these units are part of many anticancer drugs because of their smaller size and feasibility to form inter molecular hydrogen bonds with proteins.
In the RA195 molecule two amino functionalities of lysine can provide more flexibility to make better analogs.

[2] = target: T1, RPN13 (Homo sapiens, UniProt Q16186); experiment: Biotin labeling assay; type: binding; settings: cell lysate or purified RP, streptavidin-peroxidase blot
T1 construct: endogenous in cells; host or cells: HeLa, HS578T cell lysate
Description: FIGS. 10 A-10E show a series of graphs and immunoblots showing the effects of several compounds on cell viability and proteasome activity. […] 10B and 10C show immunoblots of the proteasome activity of cell lines treated with the indicated compounds. […] IC50 values were determined in triplicate. In FIG. 10B, HeLa cells were treated for 12 hr and the cell lysate was subjected to immunoblot analysis with anti-Ubiquitin antibody. In FIG. 10C, SiHa cells were treated with the indicated compounds for 12 hr and the lysate subjected to Western blot analysis with anti-Ubiquitin antibody. HeLa cell lysate was treated with RA190B, subjected to SDS-PAGE, and probed with streptavidin-peroxidase following protein transfer to a polyvinylidene difluoride (PVDF) membrane. The streptavidin-peroxidase bound to biotinylated cellular proteins, but a striking new band at 42 kDa appeared in RA190B-treated samples (FIG. 2A). […] IC50 values were determined in triplicate.
To eliminate the possibility that another RP component was required for RA190B interaction, RPN13 or an irrelevant protein (L2) was overexpressed in bacteria. Cell lysate harvested from bacteria either with or without […] induction of ectopic protein expression was labeled with RA190B and probed by blotting with streptavidin-peroxidase. RA190B reacted strongly with a 42 kDa protein only in lysates of bacteria expressing RPN13 (FIG. 2D). […] 800 μL fractions were collected and alternate fractions (1,3,5,7,9,11,13,15,17) were analyzed for the presence of proteasomal proteins (RPN13, RPN2, RPN1 and UCH37) by Western blot analysis.
Human cells (5×10^6 HeLa or 293TT cells) were lysed using MPER (Pierce) lysis buffer (500 μL). RPN13 or HPV L2 transformed bacterial cells (500 μL of culture) were centrifuged to harvest the cells which were re-suspended in 500 μL BPER (Pierce). Cell lysates were centrifuged at 10,000 rpm briefly (2 min) at 4° C. to remove cell debris. Lysate supernatant (200 μL) was pre cleared with streptavidin dyna beads (20 μL) for 1 h at 4° C. to remove non-specific biotin binding and incubated with compounds (indicated concentrations or 20 μM) at 4° C. for 1 hr. An equal amount of each sample (20 μL of lysate) was mixed with an equal volume of Laemmli sample buffer (20 μL) (BioRad) and was boiled for 5 min. […] (24 V). Membrane was blocked with 5% BSA in PBST for 1 hr at room temperature and washed for 20 min (3×PBST). Then the membrane was probed with HRP-streptavidin (1:10,000 in PBST) for 1 hr at room temperature and washed for 30 min (3×PBST) and developed using HyGLO chemiluminescent detection reagent (Denville) for biotin recognition. For the purified enzyme assay, 19S purified proteasome (R&D Systems, Cat. No. E-366) (500 ng) in 19S buffer (20 mM HEPES, 20 mM NaCl, 1 mM DTT, 15% Glycerol) was incubated with compounds (20 μM) for 1 hr at room temperature and mixed with an equal volume of Laemmli sample buffer (20 μL) (BioRad) and was boiled for 5 min. Each sample was loaded onto gel and followed the western blot protocol mentioned above.
Purified 19S proteasome (500 ng) was incubated with corresponding compounds for 30 min and subjected to immunoblot and probed with HRP-conjugated streptavidin. In FIG. 23, the single band at 42 KDa indicates Rpn13 binding to 195. RA183B (20 μM) is used as positive control for Rpn13 binding. Competition experiments were done with RA183 (100 μM) and RA195 (100 μM) along with RA195B (20 μM).

[3] = test system: HeLa; experiment: Cell viability after 48-hr treatment (Table 1); type: cell-based, human
Description: (§1) Cell viability was assayed using CellTiter 960 AQueous One Solution Reagent (Promega, Madison, Wis.). Cells seeded at the concentration of 1,000 cells/well for HeLa, 5,000 cells/well for ES2 and HCT116 and 10,000-20,000 cells/well for other cell lines in 100 μL medium in 96-well plate were treated with RA series compounds at specified concentrations. […]

[4] = test system: tetraubiquitin-firefly luciferase (4UbFL) reporter in HeLa cells; experiment: Cell culture assay for luciferase (4UbFL reporter); type: cell-based, human; settings: 4 hr treatment
Description: Sub-confluent cultures of HeLa cells were transfected with 4UbFL or FL plasmids using Lipofectamine 2000 reagent (Life Technologies, Carlsbad, Calif.). […] Luciferase activity in cell lysate was determined with a luciferase assay kit (Promega, Madison, Wis.) according to the manufacturer's instructions. Bioluminescence was measured by using a Glomax Multidetection system (Promega, Madison, Wis., USA).
HeLa cells were transiently transfected with tetra ubiquitin-fused firefly luciferase (4UB-FL) plasmid. After 48 h, the transfected cells were treated with titrations of the indicated compounds for 4 h, and luciferase activity was measured. Data is expressed as a 4UB-FL fold change compared to untreated cells.

[5] = test system: NCI-H929 cells; experiment: Active caspase-3 by FACS; type: cell-based, human; settings: 0.5 μM, 8 h
Description: NCI-H929 cells were treated with RA195 (0.5 μM) and Bz(0.5 μM) for the period of 8 h. Cells were stained for PE-conjugated Caspase-3 antibody and measured active caspase-3 by FACS.

[6] = test system: U266 cells; experiment: Active caspase-3 by FACS; type: cell-based; settings: 0.5 μM, 8 h
Description: U266 cells were treated with RA195 (0.5 μM) and Bz(0.5 μM) for the period of 8 h. Cells were stained for PE-conjugated Caspase-3 antibody and measured active caspase-3 by FACS.

[7] = target: purified 20S proteasomes (Homo sapiens, UniProt P28072+P28074+Q99436); experiment: 20S proteolytic activity assay; type: biochemical; settings: 1 μM, 30 min
Description: Actin was used as a loading control. […] In FIG. 9C-E, purified 20S proteasomes were treated for 30 min with or without compounds (1 μM) prior to the addition of the specific fluorogenic substrate for chymotryptic (9C), tryptic (9D) or PGPH (9E) hydrolytic proteasome capacities. […] DMSO was added to all samples to a final concentration of 0.1% (upper panel). The effect of DMSO is highlighted by including ubiquitin—AMC (0.5 μM) hydrolysis with 2 nM UCH37 lacking DMSO (orange, bottom panel). In FIG. 9H, purified 19S RP (500 nM) in buffer was treated with corresponding compounds 30 min at 37° C. and AMC cleavage was measured with a fluorometer for 20 min. Ubal was used as a positive control.
Release of free AMC by the enzyme reaction was determined by measuring its fluorescence at 380 nm (excitation) and 440 nm (emission). The graphs shown are representative of at least three independent determinations and each data point is the mean of ±SD of triplicate determinations.
20S proteasome cleaves the chymotryptic substrate and releases fluorescent AMC.

[8] = test system: HeLa cells; experiment: Cell surface HSP90 staining; type: cell-based, human
From the text: Cell surface HSP90 was detected by staining with purified anti-HSP90 mAb (Stressgen), followed by PE-conjugated anti-mouse IgG1. The data were acquired with a FACSCalibur and analyzed using CellQuest software.

[9] = test system: OVCAR3; experiment: Cell viability after 48-hr treatment (Table 1); type: cell-based, human; settings: Homo sapiens, OVCAR-3, XTT assay
Description: as §1

[10] = test system: CasKi; experiment: Cell viability after 48-hr treatment (Table 1); type: cell-based; settings: Homo sapiens, Ca-Ski; 48-hr treatment; XTT assay; read-out: IC50, CasKi
Description: (§2) Cell viability was assayed using CellTiter 960 AQueous One Solution Reagent (Promega, Madison, Wis.). Cells seeded at the concentration of 1,000 cells/well for HeLa, 5,000 cells/well for ES2 and HCT116 and 10,000-20,000 cells/well for other cell lines in 100 μL medium in 96-well plate were treated with RA series compounds at specified concentrations. After the indicated periods, cells were incubated according to the manufacturer's protocol with the MTS labeling mixture for 1-2 hr and absorbance at 490 nm measured using a Benchmark Plus microplate spectrophotometer (BIO-RAD).

[11] = test system: HOK-16B; experiment: Cell viability after 48-hr treatment (Table 1); type: cell-based; settings: 48-hr treatment; XTT assay; read-out: IC50, HOK-16B
Description: as §2

[12] = test system: HT3; experiment: Cell viability after 48-hr treatment (Table 1); type: cell-based; settings: Homo sapiens, HT-3; 48-hr treatment; XTT assay; read-out: IC50, HT3
Description: (§3) Cells seeded at the concentration of 1,000 cells/well for HeLa, 5,000 cells/well for ES2 and HCT116 and 10,000-20,000 cells/well for other cell lines in 100 μL medium in 96-well plate were treated with RA series compounds at specified concentrations. […]

[13] = test system: HaCaT; experiment: Cell viability after 48-hr treatment (Table 1); type: cell-based; settings: Homo sapiens, HaCaT; 48-hr treatment; XTT assay; read-out: IC50, HaCaT
Description: as §3

[14] = test system: RPMI8226; experiment: Cell viability after 48-hr treatment (Table 1); type: cell-based; settings: Homo sapiens, RPMI-8226, XTT assay
Description: as §3

[15] = test system: SiHa; experiment: Cell viability after 48-hr treatment (Table 1); type: cell-based; settings: Homo sapiens, SiHa; 48-hr treatment; XTT assay; read-out: IC50, SiHa
Description: as §3

[16] = test system: C33A; experiment: Cell viability after 48-hr treatment (Table 1); type: cell-based; settings: Homo sapiens, C-33-A; 48-hr treatment; XTT assay; read-out: IC50, C33A
Description: as §1

[17] = test system: FaDu; experiment: Cell viability after 48-hr treatment (Table 1); type: cell-based; settings: Homo sapiens, FaDu; 48-hr treatment; XTT assay; read-out: IC50, FaDu
Description: as §1

[18] = test system: MM.1S; experiment: Cell viability after 48-hr treatment (Table 1); type: cell-based; settings: Homo sapiens, MM1.S, XTT assay
Description: as §1

[19] = test system: SKOV3; experiment: Cell viability after 48-hr treatment (Table 1); type: cell-based; settings: Homo sapiens, SK-OV-3; 48-hr treatment; XTT assay; read-out: IC50, SKOV3
Description: as §1

[20] = test system: NCl-H929; experiment: Cell viability after 48-hr treatment (Table 1); type: cell-based, human; settings: Homo sapiens, XTT assay
Description: as §3

T1 sequence (Q16186 whole entry): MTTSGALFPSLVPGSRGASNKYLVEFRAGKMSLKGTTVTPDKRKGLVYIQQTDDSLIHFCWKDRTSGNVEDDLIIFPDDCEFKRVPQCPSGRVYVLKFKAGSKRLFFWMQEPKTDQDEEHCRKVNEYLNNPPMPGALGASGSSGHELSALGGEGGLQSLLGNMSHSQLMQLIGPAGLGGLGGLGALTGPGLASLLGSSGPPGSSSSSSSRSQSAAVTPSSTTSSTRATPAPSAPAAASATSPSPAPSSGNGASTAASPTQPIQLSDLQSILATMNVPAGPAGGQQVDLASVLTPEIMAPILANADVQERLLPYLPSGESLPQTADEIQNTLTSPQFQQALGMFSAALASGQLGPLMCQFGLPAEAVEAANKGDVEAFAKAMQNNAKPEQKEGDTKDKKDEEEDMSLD

SMILES: Cl.NC(Cc1ccccc1)C(=O)N1C/C(=C\c2ccc(Cl)c(Cl)c2)C(=O)/C(=C/c2ccc(Cl)c(Cl)c2)C1 (centres unmarked) [RA190D]
- antiproliferative potency among analogs [1]: Neither of these compounds was as good as RA190

- labeling of / competition for RPN13 (42 kDa band) [2]: labels HeLa cell lysate at 42 KDa
SMILES: O=C(CCCC[C@@H]1SCC2NC(=O)NC21)NCCCC[C@H](NC(=O)OCC1c2ccccc2-c2ccccc21)C(=O)N1C/C(=C\c2ccc(Cl)c(Cl)c2)C(=O)/C(=C/c2ccc(Cl)c(Cl)c2)C1 (some centres unmarked) [RA195B]

- labeling of / competition for RPN13 (42 kDa band) [2]: bound to the 42 kDa protein
SMILES: O=C(CCCC[C@@H]1SCC2NC(=O)NC21)N[C@@H](Cc1ccccc1)C(=O)N1C/C(=C\c2ccc(Cl)c(Cl)c2)C(=O)/C(=C/c2ccc(Cl)c(Cl)c2)C1 (some centres unmarked) [RA190B]
- potency in cell killing and polyubiquitin accumulation / functional assays relative to RA190 ([3]; HeLa cells, FIGS. 1I, 9I, 10A-10C): did not affect its potency

SMILES: Cl.NCCCC[C@H](NC(=O)OCc1ccccc1Cl)C(=O)N1C/C(=C\c2ccc([N+](=O)[O-])cc2)C(=O)/C(=C/c2ccc([N+](=O)[O-])cc2)C1 [RA195Bn]
- proteasome inhibition by 4UbFL stabilization (relative potency) [4]: more potent than the parent molecule RA195
- active caspase-3 [5]: caused an increase in caspase-3 expression
- active caspase-3 [6]: caused an increase in caspase-3 expression

SMILES: Cl.N[C@@H](Cc1ccccc1)C(=O)N1C/C(=C\c2ccc([N+](=O)[O-])cc2)C(=O)/C(=C/c2ccc([N+](=O)[O-])cc2)C1 [RA183]
- chymotryptic activity of the 20S proteasome (Suc-LLVY-AMC) [7]: do not
- active caspase-3 [5]: caused an increase in caspase-3 expression
- active caspase-3 [6]: caused an increase in caspase-3 expression
- antiproliferative potency among analogs [1]: higher potency

SMILES: N.N.[Cl][Pt][Cl] [cisplatin]
- surface display of HSP90 [8]: did not induce surface display of HSP90

- IC50 ([3]; Homo sapiens, HeLa, 48-hr treatment, XTT assay, read-out: IC50, HeLa): 170 nM
- IC50 [9]: 2000 nM
- IC50 [14]: 150 nM
- IC50 [18]: 50 nM
- IC50 [19]: > 2500 nM
- IC50 [20]: 75 nM
SMILES: CC(=O)N[C@@H](Cc1ccccc1)C(=O)N1C/C(=C\c2ccc(Cl)c(Cl)c2)C(=O)/C(=C/c2ccc(Cl)c(Cl)c2)C1 [RA190Ac, 3,5-bis(3,4-dichlorobenzylidene)-1-(N-(1-oxo-S-3-phenyl-1-propan-2-yl)acetamide)-piperidin-4-one-HCl salt]
- IC50 [10]: 300 nM
- IC50 [11]: 750 nM
- IC50 [12]: > 5000 nM
- IC50 [13]: > 2500 nM
- IC50 [15]: 1000 nM
- IC50 [16]: > 5000 nM
- IC50 [17]: > 2500 nM

SMILES: O=C1/C(=C/c2ccc(Cl)c(Cl)c2)CN(C(=O)[C@H](Cc2ccccc2)NC(=O)c2ccccn2)C/C1=C\c1ccc(Cl)c(Cl)c1 [RA190P]
- antiproliferative potency among analogs [1]: Neither of these compounds was as good as RA190
